Test systems include RXF 393; UACC-62; NCI-H226; EKVX; RPMI-8226; SF-295; KM12; Hs-578T; OVCAR-4; NCI-H460; NCI/ADR-RES; A549; DLD-1; IGROV-1; M19-MEL; HCT-15; PC-3; SF-539; COLO 205; K562.
Holding throughout (assay): growth of human tumour cells (NCI), 48 h

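Briefly, cells in 96-well plates were exposed to five compound concentrations for 48 h, and endpoints were estimated by linear interpolation. GI50 = concentration required for 50% inhibition of growth.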 Active and inactive are the calls of the source. No stated cut-off is given here; in the data, active = GI50 up to about 1.1 µM and inactive = higher.

Consider `c1cc2c(ncc3cscc32)s1`, for which the GI50 was > 79.3 µM (inactive) with RXF 393; > 31.6 µM (inactive) in the assay on UACC-62; > 61.7 µM (inactive) in the assay with NCI-H226; > 100 µM (inactive) in the assay on EKVX; > 100 µM (inactive) in the assay with RPMI-8226; > 100 µM (inactive) in the assay on SF-295. Besides, the GI50 in the assay on KM12, with Hs-578T, in the assay on OVCAR-4, in the assay on NCI-H460, in the assay with NCI/ADR-RES and with A549 was > 100 µM (inactive) throughout. In addition, the GI50 is > 100 µM (inactive) in the assay on DLD-1; > 31.6 µM (inactive) in the assay on IGROV-1; > 100 µM (inactive) in the assay on M19-MEL; > 100 µM with HCT-15; > 100 µM (inactive) in the assay on PC-3; > 100 µM (inactive) in the assay with SF-539. Also, the GI50 in the assay on COLO 205 and in the assay on K562 was > 100 µM (inactive) throughout.
As for `NC(=O)c1[nH]nc(C2OC(CO)C(O)C2O)c1O` (configuration not stated), the GI50 in the assay with RXF 393 was 8.99 µM (inactive); in the assay on UACC-62 it was 4.38 µM (inactive); in the assay on NCI-H226, 181 µM (inactive); with EKVX, 52.6 µM (inactive); in the assay with RPMI-8226, 0.682 µM (active); in the assay with SF-295, 0.851 µM (active). Moreover, the GI50 with KM12 was 10.4 µM (inactive); in the assay on Hs-578T it was 94 µM (inactive); in the assay with OVCAR-4, 24.7 µM (inactive); in the assay on NCI-H460, 0.573 µM (active); in the assay with NCI/ADR-RES it was 2.68 µM (inactive); in the assay with A549 it was 0.6 µM (active). Also, the GI50 in the assay with DLD-1 is 1.45 µM (inactive); in the assay with IGROV-1 it was 0.776 µM (active); in the assay on M19-MEL, 13.2 µM (inactive); with HCT-15 it was 0.5 µM; in the assay with PC-3, 3.02 µM (inactive); with SF-539 it was 16.9 µM (inactive). The GI50 was 16 µM (inactive) in the assay with COLO 205 and 0.5 µM (active) with K562.
For `COc1ccc(NC(=O)CC(=O)N/N=C/c2ccc(N(CCC#N)S(C)(=O)=O)cc2)cc1`, the GI50 in the assay on RXF 393, in the assay on UACC-62, with NCI-H226, in the assay on EKVX, in the assay with RPMI-8226 and with SF-295 was > 100 µM (inactive) each time. The GI50 in the assay with KM12, with OVCAR-4, in the assay on NCI-H460, in the assay on A549, with DLD-1 and with IGROV-1 was > 100 µM (inactive) in each case. Also, the GI50 with M19-MEL was > 100 µM (inactive); in the assay on HCT-15 it was > 100 µM; in the assay with SF-539, > 100 µM (inactive); in the assay on COLO 205 it was > 100 µM (inactive); in the assay with K562 it was > 100 µM (inactive).

(Values after ChEMBL document CHEMBL1201862, “PubChem BioAssay data set” (2004).)
